From ChEMBL document CHEMBL1123905

These molecules were tested against Histamine H2 receptor (Cavia porcellus) (UniProt P47747) (assay: Antagonism of histamine stimulated rate of beating of guinea pig right atrium mediated by Histamine H2 receptor). Conditions: Cardiac atrium.
Sequence of Histamine H2 receptor (Cavia porcellus) (P47747 whole entry): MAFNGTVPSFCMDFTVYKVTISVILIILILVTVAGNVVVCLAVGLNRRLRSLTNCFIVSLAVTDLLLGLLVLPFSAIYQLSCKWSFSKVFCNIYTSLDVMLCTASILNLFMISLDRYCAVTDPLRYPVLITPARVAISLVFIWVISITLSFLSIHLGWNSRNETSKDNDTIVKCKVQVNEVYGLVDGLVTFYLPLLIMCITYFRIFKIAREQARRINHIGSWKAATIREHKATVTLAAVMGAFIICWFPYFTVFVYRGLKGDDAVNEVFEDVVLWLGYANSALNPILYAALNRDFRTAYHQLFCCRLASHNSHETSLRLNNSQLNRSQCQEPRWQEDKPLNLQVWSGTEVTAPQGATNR
Assay type: functional, tissue-based
In the case of CN/C(=N\CCSCc1[nH]cnc1C)S(=O)(=O)O, the -Log KB is reported as 5.87. Cc1[nH]cnc1CSCC/N=C(\N)C(=O)O was tested, and the -Log KB was 5.41. With CN/C(=N\CCSCc1nc[nH]c1C)NC#N the -Log KB was 6.1. Molecule Cc1[nH]cnc1CSCCNc1ncccc1O has a -Log KB of 5.89. CN/C(=N\CCSCc1[nH]cnc1C)S(=O)O was tested, and the -Log KB was 5.73. Cc1[nH]cnc1CSCCNc1ncccc1C(=O)O was tested, and the -Log KB was 5.09. Cc1[nH]cnc1CSCCNc1ccc(C(=O)O)cn1 gave a -Log KB of under 3.3. With Cc1[nH]cnc1CSCC/N=C(\N)c1ccc(O)cc1 the -Log KB was 4.2. With Cc1[nH]cnc1CSCCNc1cc(C(=O)O)ccn1 the -Log KB was 3.76. With Cc1[nH]cnc1CSCCNc1ncccc1S(=O)(=O)O the -Log KB was 3.77. For Cc1[nH]cnc1CSCC/N=C(\N)c1ccc(C(=O)O)cc1, the -Log KB was 3.7. Work on Cc1[nH]cnc1CSCC/N=C(\N)CC(=O)O yielded a -Log KB of 3.3. With CN/C(=N\CCSCc1[nH]cnc1C)P(=O)(O)OC the -Log KB was 4.25.
